The first assay has as its target T1, PI3Kα E545K (Homo sapiens, UniProt P42336, E545K). As to the kind of experiment: PI3Kα E545K mutant in vitro cell based assay, MDA-MB-361 cells. Further details: MDA-MB-361 (ATCC-HTB-27) cell line (PI3Kα E545K); host or cells: MDA-MB-361. The conditions noted are these: MDA-MB-361 cell line, 0% FBS, no insulin, 3 hours treatment. An outline of the steps:
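MDA-MB-361 cells (PI3Kα E545K) seeded in serum-free MEM assay medium without insulin, attached overnight, then treated 3 h with compound (10-point 1:3 series, 0.3% DMSO). AlphaLISA SureFire readout of lysates. IC50 by 4-parameter fit, normalized to DMSO (max) and 1 μM GDC-0032 (min).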
T1 sequence (P42336 whole entry E545K): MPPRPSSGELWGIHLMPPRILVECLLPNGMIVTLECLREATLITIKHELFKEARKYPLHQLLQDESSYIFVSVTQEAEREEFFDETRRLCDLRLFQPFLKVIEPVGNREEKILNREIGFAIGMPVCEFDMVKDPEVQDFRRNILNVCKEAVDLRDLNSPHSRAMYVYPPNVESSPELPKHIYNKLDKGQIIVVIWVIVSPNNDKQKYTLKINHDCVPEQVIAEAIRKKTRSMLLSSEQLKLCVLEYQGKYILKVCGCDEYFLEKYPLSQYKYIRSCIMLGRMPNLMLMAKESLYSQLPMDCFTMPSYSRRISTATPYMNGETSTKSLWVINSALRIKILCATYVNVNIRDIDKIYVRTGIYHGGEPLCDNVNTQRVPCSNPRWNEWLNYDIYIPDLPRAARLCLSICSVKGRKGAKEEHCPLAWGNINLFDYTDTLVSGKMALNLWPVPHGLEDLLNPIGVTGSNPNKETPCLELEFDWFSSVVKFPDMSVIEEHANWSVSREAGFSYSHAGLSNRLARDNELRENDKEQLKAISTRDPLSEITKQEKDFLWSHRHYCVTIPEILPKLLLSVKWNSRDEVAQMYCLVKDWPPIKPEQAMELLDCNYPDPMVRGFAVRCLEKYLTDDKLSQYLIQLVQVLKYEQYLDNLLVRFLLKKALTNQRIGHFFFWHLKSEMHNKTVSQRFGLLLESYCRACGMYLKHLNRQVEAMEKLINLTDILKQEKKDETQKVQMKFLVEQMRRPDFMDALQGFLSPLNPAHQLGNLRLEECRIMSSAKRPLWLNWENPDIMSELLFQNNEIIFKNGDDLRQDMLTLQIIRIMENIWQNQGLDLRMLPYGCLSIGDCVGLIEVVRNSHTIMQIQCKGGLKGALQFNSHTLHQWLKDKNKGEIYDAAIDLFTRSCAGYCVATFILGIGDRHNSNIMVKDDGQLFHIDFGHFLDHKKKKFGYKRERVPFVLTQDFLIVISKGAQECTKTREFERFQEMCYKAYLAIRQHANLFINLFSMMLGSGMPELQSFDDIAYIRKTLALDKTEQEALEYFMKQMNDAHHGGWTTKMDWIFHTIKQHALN
T1 sequence (P27986 whole entry partner): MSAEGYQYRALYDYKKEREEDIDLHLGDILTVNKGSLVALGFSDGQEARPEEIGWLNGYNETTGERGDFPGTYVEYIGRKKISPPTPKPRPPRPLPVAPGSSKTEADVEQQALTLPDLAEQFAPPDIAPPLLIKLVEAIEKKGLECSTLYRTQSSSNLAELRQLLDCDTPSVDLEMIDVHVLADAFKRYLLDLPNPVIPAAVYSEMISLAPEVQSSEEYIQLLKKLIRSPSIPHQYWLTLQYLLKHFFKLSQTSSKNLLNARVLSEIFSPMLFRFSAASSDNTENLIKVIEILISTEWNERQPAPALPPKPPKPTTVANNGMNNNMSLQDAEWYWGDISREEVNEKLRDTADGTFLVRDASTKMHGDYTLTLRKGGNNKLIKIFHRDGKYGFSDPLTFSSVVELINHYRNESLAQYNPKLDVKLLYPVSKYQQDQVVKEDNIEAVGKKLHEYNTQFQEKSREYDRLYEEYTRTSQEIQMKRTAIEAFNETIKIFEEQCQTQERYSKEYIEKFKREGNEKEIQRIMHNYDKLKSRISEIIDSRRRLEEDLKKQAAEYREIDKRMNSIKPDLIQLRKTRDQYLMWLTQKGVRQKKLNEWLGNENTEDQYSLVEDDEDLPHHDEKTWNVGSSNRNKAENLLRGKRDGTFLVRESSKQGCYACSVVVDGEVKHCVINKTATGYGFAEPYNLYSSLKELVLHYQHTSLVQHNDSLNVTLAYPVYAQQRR
As usually defined, the IC50 is the concentration needed to halve the response being measured. A higher IC50 goes with weaker potency in that assay. With `Cc1cc([C@@H](C)Oc2ccc(Cl)nc2S(N)(=O)=O)c2oc(C3CC3CO)c(C)c(=O)c2c1` (single isomer, unassigned) [Example 126C], the IC50 is less than 500 nM. The compound `Cc1cc([C@@H](C)Oc2ccc(Cl)nc2S(N)(=O)=O)c2oc(-c3ccc4nn(C)cc4c3)c(C)c(=O)c2c1` [Example 16A, 6-Chloro-3-[(1R)-1-[3,6-dimethyl-2-(2-methylindazol-5-yl)-4-oxo-chromen-8-yl]ethoxy]pyridine-2-sulfonamide] gave an IC50 of less than 500 nM. Same read-out and setting: the same measure for `Cc1cc([C@@H](C)Oc2ccc(F)c(F)c2C(N)=O)c2oc(-c3ccc4nn(C)cc4c3)c(C)c(=O)c2c1` [Example 17A, 6-[(1R)-1-[3,6-Dimethyl-2-(2-methylindazol-5-yl)-4-oxo-chromen-8-yl]ethoxy]-2,3-difluoro-benzamide]: less than 500 nM.

Another assay addresses T1, PI3Kα E545K. As to the kind of experiment: PI3Kα E545K mutant in vitro cell based assay, MCF-7 cells. Particulars: MCF-7 cell line, 0% FBS, 3 hours treatment. From the text:
PI3K-Alpha Kinase (PI3Kα) Activity: Wild-Type PI3Kα, H1047R Mutant PI3Kα, and E545K Mutant PI3Kα In Vitro Cell Based Assays and Determination of IC50 Values for Inhibitors
The MDA-MB-453 (ATCC-HTB-131) cell line (PI3Kα H1047R) and MCF-7 (ATCC-HTB-22) cell line (PI3Kα E545K), MDA-MB-361 (ATCC-HTB-27) cell line (PI3Kα E545K), and SKBR3 (ATCC-HTB-30) cell line (wild type PI3Kα) were obtained from the American Type Culture Collection (Manassas, VA). MDA-MB-453 cells were maintained in Dulbecco's Modified Eagle Media (DMEM, Gibco 12430) supplemented with 10% Fetal Bovine Serum, heat inactivated (FBS HI, Gibco 10082), 1× non-essential amino acids (NEAA, Gibco 11140), 1 mM sodium pyruvate (Gibco 11360) and 1× Anti-Anti (Gibco 15240). MCF-7 cells were maintained in Minimum Essential Media (MEM) (Gibco 11095) supplemented with 10% Fetal Bovine Serum, heat inactivated (FBS HI, Gibco 10082), 1× non-essential amino acids (NEAA, Gibco 11140), 1 mM sodium pyruvate (Gibco 11360), 1× Anti-Anti (Gibco 15240) and 10 μg/mL human insulin (Sigma I 9278). MDA-MB-361 cells were maintained in Dulbecco's Modified Eagle Media (DMEM, Gibco 12430) supplemented with 20% Fetal Bovine Serum, heat inactivated (FBS HI, Gibco 10082), 1× non-essential amino acids (NEAA, Gibco 11140), 1 mM sodium pyruvate (Gibco 11360) and 1× Anti-Anti (Gibco 15240). SKBR3 cells were maintained in McCoy's 5A (Gibco 16600) supplemented with 10% Fetal Bovine Serum, heat inactivated (FBS HI, Gibco 10082), and 1× Anti-Anti (Gibco 15240). Cultures were maintained in a humidified incubator at 37° C. under 5% CO2/95% air.
For compound testing in 0% FBS, MDA-MB-453, MCF-7 and SKBR3 cells were seeded at a density of 1.5×10^4, 1.0×10^4, and 1.0×10^4 cells, respectively, per well in white 384-well plates in 20 μl of Minimum Essential Media (MEM) assay media with 1×NEAA, 1 mM sodium pyruvate, and 1 μg/mL human insulin (Sigma 19278) (Assay Medium); while MDA-MB-361 cells were seeded at a density of 1.5×10^4 per well in white 384-well plates in 20 μl Assay Medium without insulin. After plating, cells were allowed to attach overnight. Compounds dissolved in 10 mM stock solutions in DMSO were serially diluted 1:3 in DMSO to generate a 10-point dilution series and plated using an acoustic liquid handler system (Echo 550 Series Liquid Handler, Labcyte). A 5× intermediate compound dilution plate in MEM with 1×NEAA and 1 mM sodium pyruvate (150 μM starting compound concentration in 1.5% DMSO) was then prepared. Five μl of the intermediate serially diluted compounds were added to the cell plate to final concentrations ranging from […] in 0.3% DMSO. 0.3% DMSO alone was used to establish the maximum (MAX) signal and GDC-0032 at a final concentration of 1 μM was used as a reference compound for the minimum (MIN) signal. After 3 hours treatment, the medium was removed, and the cells were lysed in 10 μL of 1× SureFire Lysis buffer with shaking for 10 minutes at room temperature. The Acceptor Mix (Reaction Buffer 1+Reaction Buffer 2+Activation Buffer+SureFire Ultra Acceptor Beads) was prepared by diluting Activation buffer 25-fold in combined Reaction Buffer 1 and Reaction Buffer 2.
The Acceptor beads were diluted 50-fold in the combined Reaction Buffers. Five μL of Acceptor Mix was added to each well, the plate was sealed and covered with foil and incubated for 1 hour at room temperature. The Donor Mix (dilution buffer+SureFire Ultra Donor Beads) was prepared by diluting Donor Beads 50-fold in dilution buffer. Five μL of the Donor Mix was added to each well and the plate sealed and covered with foil and incubated for 1-2 hours at room temperature in the dark. The plates were read on a Neo2 plate reader instrument from Biotek using standard AlphaLisa settings.
Compounds were tested in duplicate and the % inhibition at each compound concentration was used to generate two dose response curves. One IC50 was generated using average % inhibition at each compound concentration. […]
In the case of `Cc1cc([C@@H](C)Oc2ccc(Cl)nc2S(N)(=O)=O)c2oc(C3CC3CO)c(C)c(=O)c2c1` (single isomer, unassigned) [Example 126C], the IC50 is less than 500 nM. As to `Cc1cc([C@@H](C)Oc2ccc(Cl)nc2S(N)(=O)=O)c2oc(-c3cnoc3)c(C)c(=O)c2c1` [Example 12C, 6-Chloro-3-[(1R)-1-(2-isoxazol-4-yl-3,6-dimethyl-4-oxo-chromen-8-yl)ethoxy]pyridine-2-sulfonamide], the IC50 is less than 500 nM.

Compound `Cc1cc([C@@H](C)Oc2ccc(Cl)nc2C(N)=O)c2oc(-c3ccc4c(c3)CN(C)C4=O)c(C)c(=O)c2c1` [Example 14B, 6-Chloro-3-[(1R)-1-[3,6-dimethyl-2-(2-methyl-1-oxo-isoindolin-5-yl)-4-oxo-chromen-8-yl]ethoxy]pyridine-2-carboxamide] had an IC50 of less than 500 nM. On the same count and under the same terms, the same measure for `Cc1cc([C@@H](C)Oc2ccc(Cl)nc2C(N)=O)c2oc(-c3ccc4c(c3)C(=O)N(C)C4)c(C)c(=O)c2c1` [Example 15B, 6-Chloro-3-[(1R)-1-[3,6-dimethyl-2-(2-methyl-3-oxo-isoindolin-5-yl)-4-oxo-chromen-8-yl]ethoxy]pyridine-2-carboxamide]: less than 500 nM. In the case of `Cc1cc([C@@H](C)Oc2ccc(Cl)nc2S(N)(=O)=O)c2oc(-c3ccc4nn(C)cc4c3)c(C)c(=O)c2c1` [Example 16A, 6-Chloro-3-[(1R)-1-[3,6-dimethyl-2-(2-methylindazol-5-yl)-4-oxo-chromen-8-yl]ethoxy]pyridine-2-sulfonamide], the IC50 was less than 500 nM.

In turn, `Cc1cc([C@@H](C)Oc2ccc(F)c(F)c2C(N)=O)c2oc(-c3ccc4nn(C)cc4c3)c(C)c(=O)c2c1` [Example 17A, 6-[(1R)-1-[3,6-Dimethyl-2-(2-methylindazol-5-yl)-4-oxo-chromen-8-yl]ethoxy]-2,3-difluoro-benzamide] displayed an IC50 of less than 500 nM. The same measure, in the same setting: the same measure for `Cc1cc([C@@H](C)Oc2ccc(Cl)nc2C(N)=O)c2oc(-c3ccccn3)c(C)c(=O)c2c1` [Example 19A, 6-Chloro-3-[(1R)-1-[3,6-dimethyl-4-oxo-2-(2-pyridyl)chromen-8-yl]ethoxy]pyridine-2-carboxamide]: less than 500 nM.

In turn, `Cc1cc([C@@H](C)Oc2ccc(Cl)nc2C(N)=O)c2oc(-c3cnn(C)c3)c(C)c(=O)c2c1` [Example 22A, 6-Chloro-3-[(1R)-1-[3,6-dimethyl-2-(1-methylpyrazol-4-yl)-4-oxo-chromen-8-yl]ethoxy]pyridine-2-carboxamide] registered an IC50 of less than 500 nM. `Cc1cc([C@@H](C)Oc2ccc(Cl)nc2C(N)=O)c2oc(-c3ccc4nn(C)c(F)c4c3)c(C)c(=O)c2c1` [Example 48C, 6-Chloro-3-[(1R)-1-[2-(3-fluoro-2-methyl-indazol-5-yl)-3,6-dimethyl-4-oxo-chromen-8-yl]ethoxy]pyridine-2-carboxamide] had an IC50 of less than 500 nM. Compound `Cc1cc([C@@H](C)Oc2ccc(Cl)nc2C(N)=O)c2oc(-c3ccc4c(c3)OCCO4)c(C)c(=O)c2c1` [Example 65A, 6-Chloro-3-[(1R)-1-[2-(2,3-dihydro-1,4-benzodioxin-6-yl)-3,6-dimethyl-4-oxo-chromen-8-yl]ethoxy]pyridine-2-carboxamide] showed an IC50 of less than 500 nM.

Compound `Cc1cc([C@@H](C)Oc2ccc(Cl)nc2C(N)=O)c2oc(-c3ccc4c(c3)ncn4C)c(C)c(=O)c2c1` [Example 69A, 6-Chloro-3-[(1R)-1-[3,6-dimethyl-2-(1-methylbenzimidazol-5-yl)-4-oxo-chromen-8-yl]ethoxy]pyridine-2-carboxamide] had an IC50 of less than 500 nM. Same read-out and setting: the result for `Cc1cc([C@@H](C)Oc2ccc(Cl)nc2C(N)=O)c2oc(-c3ccc4c(c3)CCN(C)C4)c(C)c(=O)c2c1` [Example 71A, 6-Chloro-3-[(1R)-1-[3,6-dimethyl-2-(2-methyl-3,4-dihydro-1H-isoquinolin-6-yl)-4-oxo-chromen-8-yl]ethoxy]pyridine-2-carboxamide] reads less than 500 nM; that for `Cc1cc([C@@H](C)Oc2ccc(Cl)nc2S(N)(=O)=O)c2oc(C3COC3)c(C)c(=O)c2c1` [Example 114C, 6-Chloro-3-[(1R)-1-[3,6-dimethyl-2-(oxetan-3-yl)-4-oxo-chromen-8-yl]ethoxy]pyridine-2-sulfonamide], less than 500 nM. Same read-out and setting: the same measure for `Cc1cc([C@@H](C)Oc2ccc(Cl)nc2C(N)=O)c2oc(-c3ccc4c(c3)CCNC4=O)c(C)c(=O)c2c1` [Example 116A, 6-Chloro-3-[(1R)-1-[3,6-dimethyl-4-oxo-2-(1-oxo-3,4-dihydro-2H-isoquinolin-6-yl)chromen-8-yl]ethoxy]pyridine-2-carboxamide]: less than 500 nM.

`Cc1cc([C@@H](C)Oc2ccc(Cl)nc2S(N)(=O)=O)c2oc(-c3ccc4nc(C)cn4c3)c(C)c(=O)c2c1` [Example 120C, 6-Chloro-3-[(1R)-1-[3,6-dimethyl-2-(2-methylimidazo[1,2-a]pyridin-6-yl)-4-oxo-chromen-8-yl]ethoxy]pyridine-2-sulfonamide] yielded an IC50 of less than 500 nM.

Take `Cc1cc([C@@H](C)Oc2ccc(Cl)nc2C(N)=O)c2oc(-c3cnc4scnc4c3)c(C)c(=O)c2c1` [Example 126A, 6-Chloro-3-[(1R)-1-(3,6-dimethyl-4-oxo-2-thiazolo[5,4-b]pyridin-6-yl-chromen-8-yl)ethoxy]pyridine-2-carboxamide]: the IC50 was less than 500 nM. Still for that read-out and setting: the same measure for `Cc1cc([C@@H](C)Oc2ccc(Cl)nc2S(N)(=O)=O)c2oc(C3(CCO)CC3)c(C)c(=O)c2c1` [Example 127C, 6-Chloro-3-[(1R)-1-[2-[1-(2-hydroxyethyl)cyclopropyl]-3,6-dimethyl-4-oxo-chromen-8-yl]ethoxy]pyridine-2-sulfonamide]: less than 500 nM. On the same count and under the same terms, the same measure for `CONS(=O)(=O)c1nc(F)ccc1O[C@H](C)c1cc(C)cc2c(=O)c(C)c(-c3cnn(CC(C)(C)O)c3)oc12` [Example 136C, 6-Fluoro-3-[(1R)-1-[2-[1-(2-hydroxy-2-methyl-propyl)pyrazol-4-yl]-3,6-dimethyl-4-oxo-chromen-8-yl]ethoxy]-N-methoxy-pyridine-2-sulfonamide]: less than 500 nM. Same read-out and setting: the same measure for `Cc1cc([C@@H](C)Oc2ccc(Cl)nc2C(N)=O)c2oc(-c3ccc4nsnc4c3)c(C)c(=O)c2c1` [Example 140A, 3-[(1R)-1-[2-(2,1,3-Benzothiadiazol-5-yl)-3,6-dimethyl-4-oxo-chromen-8-yl]ethoxy]-6-chloro-pyridine-2-carboxamide]: less than 500 nM.

Values taken from patent US20240182460A1, “ALLOSTERIC CHROMENONE INHIBITORS OF PHOSPHOINOSITIDE 3-KINASE (PI3K) FOR THE TREATMENT OF DISEASE” (PETRA PHARMA CORPORATION, priority 2022, published 2024).
